Reference: paper PMC6195846 (Molecular microbiology, 2018)

Legend:
[1] = biological target: T1, RsBluE (Cereibacter sphaeroides, UniProt Q3IZR9); experiment: ADP-Glo ATPase assay; assay type: biochemical; details: ATPase inhibition by product; ADP 20 mM; sarkosyl-solubilized enzyme; 25 C
[2] = biological target: T1, RsBluE; experiment: ADP-Glo ATPase assay; assay type: biochemical; details: ATPase inhibition; sodium pyrophosphate 10 mM; sarkosyl-solubilized enzyme; 25 C

| % decrease in activity at 20 mM [1] | % decrease in activity at 10 mM [2] | SMILES |
| --- | --- | --- |
| 52% |  | Nc1ncnc2c1ncn2[C@@H]1O[C@H](COP(=O)(O)OP(=O)(O)O)[C@@H](O)[C@H]1O [ADP] |
|  | 12% | O=P(O)(O)OP(=O)(O)O [PPi] |
